{"source": "patent US11279734B2", "about": "“Solution-phase affinity selection of inhibitors from combinatorial peptide libraries” (Massachusetts Institute of Technology, priority 2017, dated 2022)", "key": {"MDM2 [1]": {"target": "T1, MDM2 (Homo sapiens, UniProt Q00987)", "test": "Kd MDM2 (nM)", "source_text": "Table printed on a drawing sheet, Figure 2B\nHead of the field: Kd MDM2 (nM)\nThe patent's description of the figure: FIGS. 2A-2F: Rapid combinatorial mapping of pDI (6) key binding residues and affinity selection of potent non-canonical inhibitors of ^25-109MDM2 and C-CA proteins. FIG. 2A) Combinatorial mapping of pDI (6) binding hotspots, library design. Represented are 6's randomized residues using L-configured (circles) natural amino acids. FIG. 2B) Affinity selected sequences from Library 1 and 2 at different stringencies (sequences 1 to 9) were validated after resynthesis and biotinylation or acetylation (peptides 1a to 6a and 7b to 9b) using bio-layer interferometry (BLI). In bold italic are represented randomized residues, and those that were varied compared to sequence 6. FIG. 2C) Expanding linear inhibitor hotspots to non-canonical amino acids. Library 3 was designed around 6 while Library 4 was designed around CAI (37) inhibitor. Depicted are randomized residues using non-canonical amino acids (abbreviations for each monomer are indicated in bold). FIG. 2D) Affinity selection from Library 3 at higher stringency using 6 as a soluble competitive inhibitor. […]\nFirst copying reader's note: Randomized residues are printed in italic (bold or grey); this styling is not kept in the grid.\nWhere the first naming reader finds the target: head: Kd MDM2 (nM)"}, "SUMO-25-109 MDM2 [2]": {"target": "T2, SUMO-25-109 MDM2 (Homo sapiens, UniProt Q00987)", "test": "BLI in solution competition assay", "format": "binding", "details": "for binding to MDM2 (in words): acetylated peptides or mini-proteins, BLI", "procedure": "Calibration Curve: Streptavidin (SA) sensors were soaked in competition buffer (PBS supplemented with 0.05% Tween-20, and L-arginine pH 7.5) for 10 minutes at 30° C. […] The thus obtained biotinylated 63a (0.5 μM in competition buffer) was loaded on the SA sensor for 10 minutes at 30° C. and 1000 rpm. […] A calibration curve corresponding to binding response at equilibrium (in nm)=f(free [MDM2] in nM) was generated using GraphPad Prism 6 software using non-linear regression analysis (see FIG. 5).\nMeanwhile, SA sensors were soaked in competition buffer for 10 minutes at 30° C. […] Based on the binding (nm) values, the concentration of “free” MDM2 was interpolated for each sample using the calibration curve. […] The following equation was used to generate fitted curves."}, "SJSA-1 cells [3]": {"test_system": "SJSA-1 cells", "test": "Western blot analysis of p53 activation (MDM2, p21)", "format": "cell-based", "details": "10 μM, 12 hours", "procedure": "SJSA-1 and K-562 cells were seeded in 6 well plates at a cell density of 350*10^3 cells/well in RPMI-1640 media supplemented with 10% serum and 1% Pen-Strep and incubated overnight at 37° C. and 5% CO2. The next day cells were treated with peptides and controls at 10 μM for 12 hours. Then cells were harvested and their pellets washed (2×) with PBS and lysed in 100 μL of RIPA buffer supplemented with Roche protease inhibitor cocktail on ice for 30 minutes. The lysates were clarified by brief centrifugation at 4° C. and total protein concentration was determined using the Bio-Rad DC protein assay. Aliquots of the cell lysates were run on 12% Tris-Glycine polyacrylamide gels (Invitrogen). After transfer using Trans-Blot Turbo Transfer system (Biorad), the membrane was blocked at room temperature for 2 hours with LI-COR blocking buffer. The membrane was cut in three and each part was incubated respectively with anti-MDM2 (mouse, SMP14: sc-965, Santa Cruz Biotechnology), anti-p21 (mouse, F-5: sc-6246, Santa Cruz Biotechnology) and anti-GAPDH (rabbit, GAPDH (D16H11) XP®, Cell Signaling Technology) antibodies in TBST overnight at 4° C. The membranes were washed and incubated with the appropriate secondary antibodies in TBST for 1 h at room temperature, washed again, then imaged with the LI-COR Odyssey infrared imaging system (see FIGS. 103-105)."}, "K-562 cells": {"test_system": "K-562 cells", "test": "Cell viability assay (MTS)", "format": "cell-based", "details": "K-562 p53-null cells, 72 hours", "procedure": "(§1) SJSA-1, K-562 and MCF-7 cells were plated in 96-well plates in RPMI-1640 containing 10% FBS and 1% Pen-Strep and the next day were treated with the indicated concentrations of peptide or vehicle control. Peptide stocks were diluted into RPMI-1640 containing 10% FBS and 1% Pen-Strep to achieve 2× working individual stock solutions that were thoroughly mixed then diluted into the treatment wells. Cell viability was assayed after 72 hours by addition of CellTiter 96® AQueous One Solution Cell Proliferation reagent (MTS). All assays were performed in triplicate, and data was normalized to vehicle treated control and analyzed using Prism software (GraphPad Software)."}, "MCF-7 cells": {"test_system": "MCF-7 cells", "test": "Cell viability assay (MTS)", "format": "cell-based", "details": "MCF-7 cells (MDM2 and MDMX overexpressing), 72 hours", "procedure": "as §1"}, "SJSA-1 cells [4]": {"test_system": "SJSA-1 cells", "test": "Cell viability assay (MTS)", "format": "cell-based", "details": "72 hours", "procedure": "as §1"}, "MDM2 [5]": {"target": "T1, MDM2", "test": "HPSEC affinity selection under increasing stringency (EIC peak area)", "format": "binding", "details": "usual stringency vs 100 μM of 6 and MDM2 lowered to […]", "procedure": "SEC conditions: unless stated otherwise, high performance size exclusion column BIO-SEC-3, 7.8×150 mm, 3 μm particle size and 100 Å pore size was used. 100 μL of binding mixture containing peptides or peptide libraries and protein target was isocratically eluted in buffered mobile phase (25 mM Tris, 50 mM NaCl, pH 7.5, with or without L-arginine supplementation) at 1 mL/min flow rate for 15 minutes (typical backpressure ˜80-90 bars for a brand new column). Generally, mobile phase is also used as the binding buffer for affinity selection experiments, and systematically before each experiment a blank injection is performed consisting in a protein only injection. During affinity selection experiments the breakthrough fraction (protein fraction) was monitored by UV and collected. The latter contained the protein-binder complexes which were dissociated using 0.2% formic acid before characterization using LC-MS or LC-MS/MS analysis."}, "SUMO-25-109 MDM2 [6]": {"target": "T2, SUMO-25-109 MDM2", "format": "binding", "details": "biotinylated peptides, BLI"}}, "note": "Entries after “also recorded” stand apart in the source; their conditions may differ. Where two headings read alike, the source gives them in different places. Where no end group is shown, it is not given here. [ ]: non-standard residue; d: D form. Cha = N[C@@H](CC1CCCCC1)C(=O)O", "data": [{"substance": "Ac-LTYEHYWAQLTSK-NH2 [SEQ ID NO: 67 | 8b]", "values": [{"measurement": "Kd", "setting": "MDM2 [1]", "result": 2700, "unit": "nM"}]}, {"substance": "Bio-(PEG)4- Leu Thr F2f Glu His Tyr Hexa Ala Gln Cba Thr Ser Lys -NH2 [(SEQ ID NO: 11) | 10a]", "values": [{"measurement": "Kd", "setting": "MDMX", "result": 26, "unit": "nM"}]}, {"substance": "Bio-(PEG)4- Leu Thr F2f Glu His Tyr Trp Ala Gln Cba Thr Ser Lys -NH2 [(SEQ ID NO: 12) | 11a]", "values": [{"measurement": "Kd", "setting": "MDMX", "result": 33, "unit": "nM"}]}, {"substance": "Bio-(PEG)4- Leu Thr Phe Glu His Tyr Trp Ala Gln Leu Thr Ser Lys -NH2 [(SEQ ID NO: 8) | 6a]", "values": [{"measurement": "Kd", "setting": "MDMX", "result": 83, "unit": "nM"}]}, {"substance": "KAWYAN(CF3f)EKLLR [peptide 53]", "values": [{"measurement": "affinity for MDM2 lower than 54b", "setting": "SUMO-25-109 MDM2 [2]; label free approach, relative to 54b", "result": "about 20 fold"}]}, {"substance": "KAWYAN[Cha]EKLLR [peptide 45]", "values": [{"measurement": "Kd", "setting": "SUMO-25-109 MDM2 [2]; in solution competition, acetylated peptide or mini-protein, fitted titration curve", "result": 6.1, "unit": "nM"}]}, {"substance": "LT(F2f)(Dap)EYWAQ(Cba)(Dap)SAA [peptide 11b-S1]", "values": [{"measurement": "upregulation of MDM2 and p21", "setting": "SJSA-1 cells [3]", "result": "upregulated MDM2 and P21 markers; also recorded: upregulated p53 gene products p21 and MDM2"}, {"measurement": "binding to MDM2 (in words)", "setting": "SUMO-25-109 MDM2 [2]; in solution competition", "result": "low nanomolar affinity"}, {"measurement": "cell viability", "setting": "K-562 cells", "result": "did not significantly lower K-562 viability"}, {"measurement": "cell viability", "setting": "MCF-7 cells", "result": "lowered viability for MCF-7 cells"}, {"measurement": "cell killing / viability", "setting": "SJSA-1 cells [4]", "result": "cell-killing properties; also recorded: killed SJSA-1 cells"}]}, {"substance": "LT(F2f)(R8)EFWAQ(Cba)(S5)SAA [peptide 11b-M]", "values": [{"measurement": "upregulation of MDM2 and p21", "setting": "SJSA-1 cells [3]", "result": "upregulated p21 and MDM2"}, {"measurement": "binding to MDM2 (in words)", "setting": "SUMO-25-109 MDM2 [2]; in solution competition", "result": "low nanomolar affinity"}, {"measurement": "cell killing / viability", "setting": "SJSA-1 cells [4]", "result": "cell-killing properties"}]}, {"substance": "LT(F2f)(R8)EY(Hexa)AQ(Cba)(S5)SAA [peptide 10b-M]", "values": [{"measurement": "upregulation of MDM2 and p21", "setting": "SJSA-1 cells [3]", "result": "upregulated MDM2 and P21 markers"}, {"measurement": "binding to MDM2 (in words)", "setting": "SUMO-25-109 MDM2 [2]; in solution competition", "result": "low nanomolar affinity"}, {"measurement": "cell viability", "setting": "K-562 cells", "result": "did not significantly lower K-562 viability"}, {"measurement": "cell viability", "setting": "MCF-7 cells", "result": "lowered viability for MCF-7 cells"}, {"measurement": "cell killing / viability", "setting": "SJSA-1 cells [4]", "result": "cell-killing properties; also recorded: killed SJSA-1 cells"}]}, {"substance": "LT(F2f)(R8)EY(Napa)AE(Cba)KSAA [peptide 27b-M]", "values": [{"measurement": "upregulation of MDM2 and p21", "setting": "SJSA-1 cells [3]", "result": "upregulated p21 and MDM2"}, {"measurement": "binding to MDM2 (in words)", "setting": "SUMO-25-109 MDM2 [2]; in solution competition", "result": "low nanomolar affinity"}, {"measurement": "cell viability", "setting": "K-562 cells", "result": "did not significantly lower K-562 viability"}, {"measurement": "cell viability", "setting": "MCF-7 cells", "result": "lowered viability for MCF-7 cells"}, {"measurement": "cell killing / viability", "setting": "SJSA-1 cells [4]", "result": "cell-killing properties"}]}, {"substance": "LT(F2f)EHY(Hexa)AQ(Cba)TSK [peptide 10]", "values": [{"measurement": "EIC peak area variation from condition (A) to (D)", "setting": "MDM2 [5]", "result": 4.5, "unit": "fold"}]}, {"substance": "LT(F2f)EHY(Hexa)AQ(Cba)TSK [peptide 10a]", "values": [{"measurement": "binding to MDM2 (in words)", "setting": "SUMO-25-109 MDM2 [6]", "result": "high affinity binder"}]}, {"substance": "LT(F2f)EHY(Hexa)AQ(Cba)TSK [peptide 10b]", "values": [{"measurement": "binding to MDM2 (in words)", "setting": "SUMO-25-109 MDM2 [2]; in solution competition", "result": "low nanomolar affinity to MDM2"}]}, {"substance": "LT(F2f)EHYWAQ(Cba)TSK [peptide 11]", "values": [{"measurement": "EIC peak area variation from condition (A) to (D)", "setting": "MDM2 [5]", "result": 30, "unit": "fold"}]}, {"substance": "LT(F2f)EHYWAQ(Cba)TSK [peptide 11b]", "values": [{"measurement": "binding to MDM2 (in words)", "setting": "SUMO-25-109 MDM2 [2]; in solution competition", "result": "low nanomolar affinity"}]}, {"substance": "LT(F2f)KEY(Hexa)AQ(Cba)(K)SAA [peptide 10b-S4]", "values": [{"measurement": "binding to MDM2 (in words)", "setting": "SUMO-25-109 MDM2 [2]; in solution competition", "result": "weakened or abrogated binding"}]}, {"substance": "LT(F2f)KEYWAE(Cba)KSAA [peptide 11b-S4]", "values": [{"measurement": "binding to MDM2 (in words)", "setting": "SUMO-25-109 MDM2 [2]; in solution competition", "result": "weakened or abrogated binding"}]}, {"substance": "LTFCys(ar)HYWAQFCys(ar)SK [peptide 61a]", "values": [{"measurement": "binding to MDM2 (in words)", "setting": "SUMO-25-109 MDM2 [6]", "result": "substantially weaker binding compared to 60a"}]}, {"substance": "LTFEHYWAQFTSK [peptide 5a]", "values": [{"measurement": "binding to MDM2 (in words)", "setting": "SUMO-25-109 MDM2 [6]", "result": "nanomolar binder"}]}]}
